# Where a name gives a salt, the structure may show the parent alone.
# Biological target: T1, human blood clotting factor VIIa (Homo sapiens, UniProt P08709)
# T1 construct: 5 nM human blood clotting factor VIIa
# Assay: Inhibiting activity against blood clotting factor VIIa (Spectrozyme VII chromogenic assay)
# Assay type: biochemical
# Conditions: 10 nM human tissue factor, 5 nM human blood clotting factor VIIa, Spectrozyme VII substrate, 40 minutes at room temperature, absorbance 405 nm
# Method: Pharmacological Activity Test (Inhibiting Activity Against Blood Clotting Factor VIIa)
# Compounds of the present invention (Examples 1-4, 1-26, 1-39, 1-40 and 8-3) were each dissolved in dimethyl sulfoxide to 5 mg/ml, and then each solution was diluted 50-fold with reaction buffer to prepare a 100 μg/ml solution (2% dimethyl sulfoxide solution) Also, a 10-fold dilution series with reaction buffer was prepared with the compound solutions from 100 μg/ml to 1 ng/ml. Separately, dimethyl sulfoxide alone was diluted 50-fold with reaction buffer to prepare a 2% dimethyl sulfoxide solution as a control. The composition of the reaction buffer was 50 mM Tris-acetate (pH 7.5), 15 mM calcium chloride (CaCl2), 0.15 M sodium chloride (NaCl) and 6 mg/ml Cephalin. There were also added to the buffer 10 nM human tissue factor (TF) and 5 nM human blood clotting factor VIIa, to prepare enzyme solutions. After separating off 65 μl of each solution, a 10 μl portion of the 2% dimethyl sulfoxide solution of each compound of the invention was added and preincubation was performed at room temperature. As a substrate there was added 25 μl of 1.0 mM Spectrozyme VII, and reaction was conducted for 40 minutes at room temperature. The enzyme reaction rate was quantified by the change ion absorbance of released 4-nitroanilide at 405 nm.
# For measurement of the inhibiting activity against human blood clotting factor VIIa, the enzyme reaction rate was determined in the presence of the above-mentioned compounds of the present invention from 10 μg/ml to 0.1 ng/ml. The IC50 values were calculated based on nonlinear regression analysis, as an index of the inhibiting activity against human blood clotting factor VIIa.
# T1 sequence (P08709 213-466 limits assumed): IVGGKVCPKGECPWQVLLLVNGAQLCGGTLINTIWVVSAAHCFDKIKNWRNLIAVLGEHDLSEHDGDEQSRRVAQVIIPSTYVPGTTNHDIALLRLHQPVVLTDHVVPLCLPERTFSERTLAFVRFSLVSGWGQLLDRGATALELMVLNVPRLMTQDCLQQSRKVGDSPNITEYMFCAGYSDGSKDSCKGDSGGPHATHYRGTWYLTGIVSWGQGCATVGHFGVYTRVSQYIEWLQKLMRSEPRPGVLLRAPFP
# T1 sequence (P08709 61-212 limits assumed): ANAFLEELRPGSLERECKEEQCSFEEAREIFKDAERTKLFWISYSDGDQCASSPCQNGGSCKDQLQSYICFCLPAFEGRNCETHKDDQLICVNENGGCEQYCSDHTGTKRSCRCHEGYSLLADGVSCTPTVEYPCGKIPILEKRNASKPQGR
# T1 sequence (P13726 33-295 partner): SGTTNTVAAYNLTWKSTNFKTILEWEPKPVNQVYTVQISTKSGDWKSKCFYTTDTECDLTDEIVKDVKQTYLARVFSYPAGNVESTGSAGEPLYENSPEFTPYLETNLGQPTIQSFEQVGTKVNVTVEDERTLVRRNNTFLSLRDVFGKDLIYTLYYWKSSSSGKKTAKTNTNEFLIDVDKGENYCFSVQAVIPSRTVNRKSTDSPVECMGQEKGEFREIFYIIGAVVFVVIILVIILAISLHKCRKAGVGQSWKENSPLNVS
row,IC50 [nM],SMILES
1,40,"Cc1ccc(S(=O)(=O)Nc2ccc(Oc3ccc4cc(C(=N)N)ccc4c3)c(-c3ccccc3C(=O)O)c2)cc1Cl [Example 1-40, 2′-(6-amidino-2-naphthyloxy)-5′-(3-chloro-4-methylbenzenesulfonyl)amino-1,1′-biphenyl-2-carboxylic acid trifluoroacetate]"
2,4,"Cc1ccc(S(=O)(=O)Nc2ccc(Oc3ccc4cc(C(=N)N)ccc4c3)c(-c3ccc(C(=O)NCC(C)C)cc3C(=O)O)c2)cc1Cl [Example 8-3, 2′-(6-amidino-2-naphthyloxy)-4-(2-methylpropylcarbamoyl)-5′-(3-chloro-4-methylbenzenesulfonyl)amino-1,1′-biphenyl-2-carboxylic acid trifluoroacetate]"
3,210,"COc1ccc(S(=O)(=O)Nc2ccc(Oc3ccc4cc(C(=N)N)ccc4c3)c(-c3ccccc3C(=O)O)c2)cc1 [Example 1-26, 2′-(6-amidino-2-naphthyloxy)-5′-(4-methoxybenzenesulfonyl)amino-1,1′-biphenyl-2-carboxylic acid trifluoroacetate]"
4,1430,"N=C(N)c1ccc2cc(Oc3ccc(NS(=O)(=O)c4ccc5ccccc5c4)cc3C(=O)O)ccc2c1 [Example 1-4, 2-(6-amidino-2-naphthyloxy)-5-(2-naphthalenesulfonyl)aminobenzoic acid trifluoroacetate]"

row,SMILES,IC50 [nM]
1,"CC(=O)N1CCc2ccc(S(=O)(=O)Nc3ccc(Oc4ccc5cc(C(=N)N)ccc5c4)c(-c4ccccc4C(=O)O)c3)cc2C1 [Example 1-39, 2′-(6-amidino-2-naphthyloxy)-5′-[1,2,3,4-tetrafluoro-2-(acetyl)isoquinoline-7-sulfonyl)amino-1,1′-biphenyl-2-carboxylic acid trifluoroacetate]",30

# From patent US6916837B2, “Amidino derivatives and anticoagulants and thrombosis therapeutic agents containing them” (Eisai Co., Ltd., priority 2001, dated 2005)
